Data: US10405547B2, “Substituted cyclic amides as herbicides” (FMC Corporation, priority 2015, dated 2019)

Key:
Type in all cases: in vivo
[1] = test system: pigweed (Amaranthus retroflexus); assay: Test A postemergence, pigweed; conditions: visual injury, 0 to 100 scale (0 no effect, 100 complete control), approximately 10 days
In short: (§1)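 Visual injury on a 0 to 100 scale, about 10 days post-spray in the greenhouse. Postemergence plants measured 2–10 cm at one to two leaves; preemergence pots received a directed soil spray. Soil was a loam–sand blend.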

[2] = test system: foxtail, giant (Setaria faberii); assay: Test A preemergence, giant foxtail; conditions: 0 to 100 scale (0 no effect, 100 complete control)
In short: as §1

kochia (Kochia scoparia) [3] = assay: Test A postemergence, kochia; conditions: visual injury, 0 to 100 scale (0 no effect, 100 complete control), approximately 10 days
In short: as §1

[4] = test system: ryegrass, Italian (Lolium multiflorum); assay: Test A preemergence, Italian ryegrass; conditions: 0 to 100 scale (0 no effect, 100 complete control)
In short: as §1

corn (Zea mays) = assay: Test A postemergence, corn; conditions: visual injury, 0 to 100 scale (0 no effect, 100 complete control), approximately 10 days
In short: as §1

[5] = test system: barnyardgrass (Echinochloa crus-galli); assay: Test B flooded paddy test, barnyardgrass; conditions: applied to paddy water, visual rating after 13 to 15 days, scale 0 (no effect) to 100 (complete control)
In short: (§2)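 Greenhouse pots flooded to 3 cm above soil at time of treatment received compound via the water, which stayed at that level.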

[6] = test system: barnyardgrass (Echinochloa crus-galli); assay: Test A postemergence, barnyardgrass; conditions: visual injury, 0 to 100 scale (0 no effect, 100 complete control), approximately 10 days
In short: as §1

[7] = test system: barnyardgrass (Echinochloa crus-galli); assay: Test A preemergence, barnyardgrass; conditions: 0 to 100 scale (0 no effect, 100 complete control)
In short: as §1

rice (Oryza sativa) = assay: Test B flooded paddy test, rice; conditions: applied to paddy water, visual rating after 13 to 15 days, scale 0 (no effect) to 100 (complete control)
In short: as §2

[8] = test system: ryegrass, Italian (Lolium multiflorum); assay: Test A postemergence, Italian ryegrass; conditions: visual injury, 0 to 100 scale (0 no effect, 100 complete control), approximately 10 days
In short: as §1

[9] = test system: foxtail, giant (Setaria faberii); assay: Test A postemergence, giant foxtail; conditions: visual injury, 0 to 100 scale (0 no effect, 100 complete control), approximately 10 days
In short: as §1

[10] = test system: ducksalad (Heteranthera limosa); assay: Test B flooded paddy test, ducksalad; conditions: applied to paddy water, visual rating after 13 to 15 days, scale 0 (no effect) to 100 (complete control)
In short: as §2

kochia (Kochia scoparia) [11] = assay: Test A preemergence, kochia; conditions: 0 to 100 scale (0 no effect, 100 complete control)
In short: as §1

[12] = test system: ragweed (common ragweed, Ambrosia elatior); assay: Test A postemergence, ragweed; conditions: visual injury, 0 to 100 scale (0 no effect, 100 complete control), approximately 10 days
In short: as §1

[13] = test system: sedge, umbrella (small-flower umbrella sedge, Cyperus difformis); assay: Test B flooded paddy test, umbrella sedge; conditions: applied to paddy water, visual rating after 13 to 15 days, scale 0 (no effect) to 100 (complete control)
In short: as §2

[14] = test system: blackgrass (Alopecurus myosuroides); assay: Test A postemergence, blackgrass; conditions: visual injury, 0 to 100 scale (0 no effect, 100 complete control), approximately 10 days
In short: as §1

[15] = test system: pigweed (Amaranthus retroflexus); assay: Test A preemergence, pigweed; conditions: 0 to 100 scale (0 no effect, 100 complete control)
In short: as §1

[16] = test system: ragweed (common ragweed, Ambrosia elatior); assay: Test A preemergence, ragweed; conditions: 0 to 100 scale (0 no effect, 100 complete control)
In short: as §1

[17] = test system: wheat (Triticum aestivum); assay: Test A postemergence, wheat; conditions: visual injury, 0 to 100 scale (0 no effect, 100 complete control), approximately 10 days
In short: as §1

[18] = test system: galium (catchweed bedstraw, Galium aparine); assay: Test A postemergence, galium; conditions: visual injury, 0 to 100 scale (0 no effect, 100 complete control), approximately 10 days
In short: as §1

SMILES	Plant response rating, Pigweed ([1]; 125 g ai/ha)	Plant response rating, Pigweed ([1]; 500 g ai/ha)	Plant response rating, Foxtail, Giant ([2]; 125 g ai/ha)	Plant response rating, Foxtail, Giant ([2]; 500 g ai/ha)	Plant response rating, Kochia (kochia (Kochia scoparia) [3]; 125 g ai/ha)	Plant response rating, Kochia (kochia (Kochia scoparia) [3]; 500 g ai/ha)	Plant response rating, Ryegrass, Italian ([4]; 125 g ai/ha)	Plant response rating, Ryegrass, Italian ([4]; 500 g ai/ha)	Plant response rating, Corn (corn (Zea mays); 125 g ai/ha)	Plant response rating, Corn (corn (Zea mays); 500 g ai/ha)	Plant response rating, Barnyardgrass ([6]; 125 g ai/ha)	Plant response rating, Barnyardgrass ([6]; 500 g ai/ha)	Plant response rating, Barnyardgrass ([7]; 125 g ai/ha)	Plant response rating, Barnyardgrass ([7]; 500 g ai/ha)	Plant response rating, Ryegrass, Italian ([8]; 125 g ai/ha)	Plant response rating, Ryegrass, Italian ([8]; 500 g ai/ha)	Plant response rating, Foxtail, Giant ([9]; 125 g ai/ha)	Plant response rating, Foxtail, Giant ([9]; 500 g ai/ha)	Plant response rating, Ragweed ([12]; 125 g ai/ha)	Plant response rating, Ragweed ([12]; 500 g ai/ha)	also measured
CN(C)N=Cc1cccc(C2CN(C)C(=O)C2C(=O)Nc2ccccc2F)c1 (stereo not shown) [Compound 54]	0	0	0	70	0	0	0	0	0	0	0	30	0	20	0	0	0	20	0	0	Plant response rating, Barnyardgrass (Flood) ([5]; 250 g ai/ha): 0; Plant response rating, Rice (Flood) (rice (Oryza sativa); 250 g ai/ha): 0; Plant response rating, Ducksalad (Flood) ([10]; 250 g ai/ha): 0; Plant response rating, Kochia (kochia (Kochia scoparia) [11]; 125 g ai/ha): 0; Plant response rating, Kochia (kochia (Kochia scoparia) [11]; 500 g ai/ha): 0; Plant response rating, Sedge, Umbrella (Flood) ([13]; 250 g ai/ha): 0; Plant response rating, Blackgrass ([14]; 125 g ai/ha): 0; Plant response rating, Blackgrass ([14]; 500 g ai/ha): 0; Plant response rating, Pigweed ([15]; 125 g ai/ha): 0; Plant response rating, Pigweed ([15]; 500 g ai/ha): 0; Plant response rating, Ragweed ([16]; 125 g ai/ha): 0; Plant response rating, Ragweed ([16]; 500 g ai/ha): 0; Plant response rating, Wheat ([17]; 125 g ai/ha): 0; Plant response rating, Wheat ([17]; 500 g ai/ha): 0; Plant response rating, Galium ([18]; 125 g ai/ha): 0; Plant response rating, Galium ([18]; 500 g ai/ha): 0
O=C1NCC(c2ccccc2Cn2ccc(C(F)(F)F)n2)C1C(=O)Nc1cccc(F)c1F (stereo not shown) [Compound 57]	0	20	60	90	0	20	0	0	30	30	0	60	40	90	0	0	40	70	0	30	Plant response rating, Barnyardgrass (Flood) ([5]; 250 g ai/ha): 0; Plant response rating, Rice (Flood) (rice (Oryza sativa); 250 g ai/ha): 0; Plant response rating, Ducksalad (Flood) ([10]; 250 g ai/ha): 0; Plant response rating, Kochia (kochia (Kochia scoparia) [11]; 500 g ai/ha): 0; Plant response rating, Sedge, Umbrella (Flood) ([13]; 250 g ai/ha): 0; Plant response rating, Blackgrass ([14]; 125 g ai/ha): 0; Plant response rating, Blackgrass ([14]; 500 g ai/ha): 30; Plant response rating, Pigweed ([15]; 125 g ai/ha): 0; Plant response rating, Pigweed ([15]; 500 g ai/ha): 0; Plant response rating, Ragweed ([16]; 125 g ai/ha): 0; Plant response rating, Ragweed ([16]; 500 g ai/ha): 0; Plant response rating, Wheat ([17]; 125 g ai/ha): 0; Plant response rating, Wheat ([17]; 500 g ai/ha): 0; Plant response rating, Galium ([18]; 125 g ai/ha): 0; Plant response rating, Galium ([18]; 500 g ai/ha): 20
O=C1NCC(c2ccccc2Cn2ccc(C(F)(F)F)n2)C1C(=O)Nc1ccc(F)c(F)c1F (stereo not shown) [Compound 58]	0	0	60	90	0	20	0	20	0	0	0	60	30	90	0	0	30	60	0	0	Plant response rating, Barnyardgrass (Flood) ([5]; 250 g ai/ha): 0; Plant response rating, Rice (Flood) (rice (Oryza sativa); 250 g ai/ha): 0; Plant response rating, Ducksalad (Flood) ([10]; 250 g ai/ha): 0; Plant response rating, Kochia (kochia (Kochia scoparia) [11]; 125 g ai/ha): 0; Plant response rating, Sedge, Umbrella (Flood) ([13]; 250 g ai/ha): 0; Plant response rating, Blackgrass ([14]; 125 g ai/ha): 0; Plant response rating, Blackgrass ([14]; 500 g ai/ha): 0; Plant response rating, Pigweed ([15]; 125 g ai/ha): 0; Plant response rating, Pigweed ([15]; 500 g ai/ha): 0; Plant response rating, Ragweed ([16]; 125 g ai/ha): 0; Plant response rating, Ragweed ([16]; 500 g ai/ha): 0; Plant response rating, Wheat ([17]; 125 g ai/ha): 0; Plant response rating, Wheat ([17]; 500 g ai/ha): 0; Plant response rating, Galium ([18]; 125 g ai/ha): 0; Plant response rating, Galium ([18]; 500 g ai/ha): 20
O=C1NCC(c2ccccc2Cn2ccc(C(F)(F)F)n2)C1C(=O)Nc1ccccc1F (stereo not shown) [Compound 59]	0	0	0	50	0	0	0	0	0	0	0	30	0	40	0	0	0	20	0	0	Plant response rating, Barnyardgrass (Flood) ([5]; 250 g ai/ha): 0; Plant response rating, Rice (Flood) (rice (Oryza sativa); 250 g ai/ha): 0; Plant response rating, Ducksalad (Flood) ([10]; 250 g ai/ha): 0; Plant response rating, Kochia (kochia (Kochia scoparia) [11]; 125 g ai/ha): 0; Plant response rating, Kochia (kochia (Kochia scoparia) [11]; 500 g ai/ha): 0; Plant response rating, Sedge, Umbrella (Flood) ([13]; 250 g ai/ha): 0; Plant response rating, Blackgrass ([14]; 125 g ai/ha): 0; Plant response rating, Blackgrass ([14]; 500 g ai/ha): 0; Plant response rating, Pigweed ([15]; 125 g ai/ha): 0; Plant response rating, Pigweed ([15]; 500 g ai/ha): 0; Plant response rating, Ragweed ([16]; 125 g ai/ha): 0; Plant response rating, Ragweed ([16]; 500 g ai/ha): 0; Plant response rating, Wheat ([17]; 125 g ai/ha): 0; Plant response rating, Wheat ([17]; 500 g ai/ha): 0; Plant response rating, Galium ([18]; 125 g ai/ha): 0; Plant response rating, Galium ([18]; 500 g ai/ha): 0
O=C1NCC(c2cccc(OCc3ccccc3)c2)C1C(=O)Nc1ccccc1F (stereo not shown) [Compound 63]	0	0	0	0	0	0	0	0	0	0	0	0	0	0	0	0	0	0	0	0	Plant response rating, Barnyardgrass (Flood) ([5]; 500 g ai/ha): 0; Plant response rating, Rice (Flood) (rice (Oryza sativa); 500 g ai/ha): 0; Plant response rating, Ducksalad (Flood) ([10]; 500 g ai/ha): 35; Plant response rating, Kochia (kochia (Kochia scoparia) [11]; 125 g ai/ha): 0; Plant response rating, Kochia (kochia (Kochia scoparia) [11]; 500 g ai/ha): 0; Plant response rating, Sedge, Umbrella (Flood) ([13]; 500 g ai/ha): 0; Plant response rating, Blackgrass ([14]; 125 g ai/ha): 0; Plant response rating, Blackgrass ([14]; 500 g ai/ha): 0; Plant response rating, Pigweed ([15]; 125 g ai/ha): 0; Plant response rating, Pigweed ([15]; 500 g ai/ha): 0; Plant response rating, Ragweed ([16]; 125 g ai/ha): 0; Plant response rating, Ragweed ([16]; 500 g ai/ha): 0; Plant response rating, Wheat ([17]; 125 g ai/ha): 0; Plant response rating, Wheat ([17]; 500 g ai/ha): 0; Plant response rating, Galium ([18]; 125 g ai/ha): 0; Plant response rating, Galium ([18]; 500 g ai/ha): 0
